Ends that are not written are not given here.
Molecular target: T1, BRPF1 bromodomain (Homo sapiens, UniProt P55201)
T1 sequence (P55201 629-742): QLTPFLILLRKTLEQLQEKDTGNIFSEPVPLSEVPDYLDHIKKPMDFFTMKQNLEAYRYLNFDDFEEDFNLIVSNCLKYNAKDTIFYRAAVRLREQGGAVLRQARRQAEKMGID
Test: biochemical
Format: binding
Conditions: SD

## LGKGGAK(Ac)RHRK [H4K16ac (10–20)]
  Kd: 518 ± 92.1 µM

Source: paper PMC7861561 (Current Research in Structural Biology, 2020)
